Test results reported in patent US4837342A, “Prostacyclin analogue, and blood circulation improving agent and anti-ulcer composition containing it as active ingredient” (Sagami Chemical Research Center, priority 1986, dated 1989).
Read-outs that look alike come from different tables or passages of the source.

Experiments:
Ethanol ulcer = Ethanol ulcer inhibiting activity; format: in vivo, Male wister rats; conditions: rat; for ED50: po, P.O., 30 minutes before 99.5% ethanol; for Ethanol ulcer inhibition: oral administration of 30 μg/kg
Protocol: Ethanol ulcer inhibiting activity
Male wister rats having a weight of from 170 to 270 g were put into individual cages and starved for 24 hours. During this starvation period, the rats were allowed to drink water freely. A test compound or PGE2 as a comparative compound was orally administered in an amount of 3, 10 or 30 μg/kg, and 30 minutes later, 1 ml of 99.5% ethanol was orally administered to each rat. One hour after the ethanol administration, each rat was filled by cervical vertebral luxation, and the stomach was taken out. A 1% formaline solution was injected into the stomach in an amount of about 8 ml, and the stomach was fixed in the formaline solution for 30 minutes. After the fixing, the stomach was severed along the greater curvature, and the mucous membrane surface of the stomach was gently washed with flowing water. Then, the total length of damages appearing on the gastric glandular portion was obtained and used as the ulcer index.
The ethanol ulcer inhibiting activity of a test compound was represented by ED50 (i.e. the dose of the test compound at which the ulcer was inhibited by 50% relative to the ulcer index of the non-treated group). To the non-treated group, the solvent was administered.

Hydrochloric acid ulcer = Hydrochloric acid ulcer inhibiting activity; format: in vivo, wister rats; conditions: rat; oral administration of 30 μg/kg; 0.6N hydrochloric acid; read-out: Hydrochloric acid ulcer inhibiting activity, Inhibiting rate
Protocol: Hydrochloric acid ulcer inhibiting activity
Male wister […] having a weight of from 190 to 240 g were used. The rats were starved in the same manner as in Test Example 6, and the test compounds and PGE2 were, respectively, orally administered in an amount of 30 μg/kg, and 30 minutes later, 1 ml of 0.6N hydrochloric acid was orally administered. Thirty minutes after the hydrochloric acid administration, each rat was killed by cervical vertebral luxation. Then, the stomach was taken out and fixed, and the ulcer index was obtained, in the same manner as in Test Example 6. The hydrochloric acid ulcer inhibiting activity of a test compound was represented by the inhibiting percentage (i.e. the percentage of the ulcer index of the treated group to the ulcer index of the non-treated group). To the non-treated group, the solvent was administered.

Indomethacine ulcer = Indomethacine ulcer inhibiting activity; format: in vivo, Male wister rats; conditions: rat
Excerpt: Indomethacine ulcer inhibiting activity
Male wister rats having a weight of from 210 to 270 g were used. The rats were starved in the same manner as in Test Example 6. […] Three hours after the indomethacine administration, the test compound or PGE2 was again orally administered in the same amount. Six hours after the first administration of indomethacine, each rat was killed by cervical bertebral luxation. The stomach was taken out and fixed, and the ulcer index was obtained, in the same manner as in Test Example 6.
The indomethacine ulcer inhibiting activity of a test compound was represented by the inhibiting percentage (i.e. the inhibiting percentage of the ulcer index of the treated group to the ulcer index of the non-treated group). To the non-treated group, the solvent was administered.

[1] = system: Blood platelet (ADP agglutination); assay: Blood platelet agglutination inhibiting activity (ADP-induced), washed rabbit platelet suspension; format: cell-based, rabbit (Japanese white male rabbits); conditions: for IC50: Oryctolagus cuniculus, Platelet, ADP 10 μM, concentration suppressing agglutination to 50%, read-out: Platelet agglutination inhibiting activity ED50, ADP agglutination; for Activity ratio, platelet agglutination inhibiting activity, ADP agglutination: relative to prostacyclin = 1
Protocol: (§1) Blood platelet aggutination inhibiting activity
(§2) Japanese white male rabbits having a weight of from 2.0 to 2.5 kg were used.
(§3) Under anesthesia with sodium Pentobarbital, blood was sampled from the carotid artery, and mixed with a 1/7 volume of an anticoagulant citric acid dextrose solution. Then, the mixture was subjected to centrifugal separation at 140×g for 15 minutes, whereupon the supernatant (platelet rich plasma:PRP) was obtained. PRP was subjected to centrifugal separation at 1,300×g for 7 minutes. The blood platelet pellets thus obtained were washed with a HEPES buffer solution (pH 6.5) for washing blood platelets, and subjected to centrifugal separation at 1,300×g for 7 minutes. The blood platelet pellets washed twice under such condition, were suspended in a suspending liquid (a buffer solution for washing blood platelets, which contains 0.1% of human fibrinogen, 1.8 mM of CaCl2 and 1.2 mM of MgCl2) to obtain a blood platelet suspension having a concentration of from 5×10^8 to 8×10^8 platelets/ml.
(§4) The platelet agglutination ability was measured by means of an agglutination meter. To 380 μl of the platelet suspension, 10 μl of a test compound or a solvent as the control, was added. Three minutes later, 10 μl of a platelet agglutinating substance (10 μM of ADP or 1 μg/ml of collagen, as the final concentration) was added thereto to induce agglutination.
(§5) The blood platelet agglutination inhibiting activity of each test compound was represented by ED50 (i.e. the concentration of the test compound where the platelet agglutination is suppressed to 50%).

[2] = system: Blood platelet (Collagen agglutination); assay: Blood platelet agglutination inhibiting activity (collagen-induced), washed rabbit platelet suspension; format: cell-based, rabbit (Japanese white male rabbits); conditions: for IC50: Oryctolagus cuniculus, Platelet, collagen 1 μg/ml, concentration suppressing agglutination to 50%, read-out: Platelet agglutination inhibiting activity ED50, Collagen agglutination; for Activity ratio, platelet agglutination inhibiting activity, Collagen agglutination: relative to prostacyclin = 1
Protocol: as §1, §2, §3, §4, §5

coronary artery = assay: Blood flow-increasing activity in the coronary artery, anesthetized dog; format: in vivo, crossbred adult dog; conditions: for ED50: Canis lupus familiaris, reactive hyperemia = 100%; for ED50 / Blood flow increase in coronary artery: dog, near arterial injection; for Activity ratio, blood flow-increasing activity in coronary artery: relative to prostacyclin = 1; for Blood flow increase in coronary artery: at 3 μg/kg
Protocol: Blood flow-increasing activity in the coronary artery
A crossbred adult dog having a weight of from 9 to 15 kg was anesthetized with sodium Pentobarbital and subjected to thoractomy under artificial respiration. After pericardiectomy, the frontal descending branch of the left coronary artery was separated from the surrounding tissues, and a blood flow-measuring probe was attached thereto under sodium heparin treatment. The coronary blood flow was measured by using an electromagnetic flow meter. The test compound was injected into the coronary artery by near arterial injection, and the blood flow-increasing activity in the coronay artery was represented by ED50 (i.e. the dose of a test compound at which the blood flow increases by 50%, as evaluated on the basis that the blood flow increase by the reactive hyperemia caused by releasing the blood flow of the coronary artery after blocking it for 15 seconds, is evaluated to be 100%).

vertebral artery = assay: Blood flow-increasing activity in the vertebral artery, anesthetized dog; format: in vivo, crossbred adult dog; conditions: for ED50: Canis lupus familiaris, papaverine hydrochloride 100 μg/kg = 100%; for Activity ratio, blood flow-increasing activity in vertebral artery: relative to prostacyclin = 1
Excerpt: Blood flow-increasing activity in the vertebral artery
A made or female crossbred adult dog having a weight of from 8 to 13 kg was anesthetized by intravenous administration of sodium Pentobarbital and subjected to thoractomy along the mediam line under artificial respiration to expose the left vertebral artery. Under sodium peparin treatment, a polyethylene cannula was inserted into the vertebral artery, and a blood flow-measuring probe was attached to its other end, to which a blood circulation tube led from the left femoral artery was connected, whereby the blood flow in the vertebral artery was measured by using an electromagnetic flow meter. The test compound was injected into the vertebral artery by near arterial injection, and the blood flow-increasingactivity in the vertebral artery was represented by ED50 (i.e. the dose of a test compound at which the blood flow increases by 50%, as evaluated on the basis that the blood flow increase (representing substantially the maximum reaction) by the administration of 100 μg/kg papaverine hydrochloride into the vertebral artery, is evaluated to be 100%).

femoral artery = assay: Blood flow-increasing activity in the femoral artery, anesthetized dog; format: in vivo, crossbred adult dog; conditions: for ED50: Canis lupus familiaris, papaverine hydrochloride 100 μg/kg = 100%; for Activity ratio, blood flow-increasing activity in femoral artery: relative to prostacyclin = 1
Protocol: Blood flow-increasing activity in the femoral artery
A male or female crossbred adult dog having a weight of from 8 to 13 kg, was anesthetized by intravenous administration of sodium Pentobarbital. Then, a tracheal cannula was inserted, and artificial respiration was conducted. The blood flow in the femoral artery was measured by inserting the annula into the left femoral artery under sodium heparin treatment and providing a blood flow measuring probe at it other end, and by using an electromagnetic flow meter. The test compound was injected into the femoral artery by near arterial injection, and the blood flow-increasing activity in the femoral artery was represented by ED50 (i.e. the dose of a test compound at which the blood flow increases by 50%, as evaluated on the bais that the blood flow increase (representing substantially the maximum reaction) by the administration of 100 μg/kg of papaveline hydrochloride into the femoral artery, is evaluted to be 100%).

diastolic blood pressure = assay: Hypotensive activity, anesthetized dog; format: in vivo, crossbred adult dog; conditions: for Activity ratio, hypotensive activity: relative to prostacyclin = 1; for ED (50 mmHg): Canis lupus familiaris, iv
Protocol: A male or female crossbred adult dog having a weight of from 9 to 14 kg was anesthetized by intraveous administration of sodium Pentobarbital. Then, the left carotid was exposed under artificial respiration, and the blood pressure was measured by using an electric blood pressure meter. […]

[3] = background; cited from earlier work
[4] = oral administration of 60 μg/kg twice
[5] = dog, at 3 μg/kg, near arterial injection

Row | Compound | ED50 (Ethanol ulcer) [µg/kg] | inhibition in vivo at 0.03 mg/kg (Hydrochloric acid ulcer) [%] | IC50 [1] [nM] | Activity ratio, platelet agglutination inhibiting activity, ADP agglutination [1] | IC50 [2] [nM] | Activity ratio, platelet agglutination inhibiting activity, Collagen agglutination [2] | ED50 (coronary artery) [µg/kg] | Activity ratio, blood flow-increasing activity in coronary artery (coronary artery) | ED50 (vertebral artery; dog, near arterial injection) [µg/kg] | Activity ratio, blood flow-increasing activity in vertebral artery (vertebral artery) | ED50 (femoral artery; dog, near arterial injection) [µg/kg] | Activity ratio, blood flow-increasing activity in femoral artery (femoral artery) | Hypotensive activity, blood pressure decrease (diastolic blood pressure; dog, at 10 μg/kg i.v.) [mmHg] | Activity ratio, hypotensive activity (diastolic blood pressure) | Ethanol ulcer inhibition (Ethanol ulcer) [%] | Indomethacine ulcer inhibition (in words) (Indomethacine ulcer; [4]) | further results
1 | CCCCC[C@H](O)/C=C/[C@H]1[C@H](O)CC(=O)[C@@H]1C/C=C\CCCC(=O)O [PGE2, reference compound] | 9.03 | 61.6 | – | – | – | – | – | – | – | – | – | – | – | – | – | – | Indomethacine ulcer inhibiting activity, Inhibiting rate (Indomethacine ulcer; oral administration 30 μg/kg twice): 98.3%
2 | CCCCC[C@H](O)/C=C/[C@@H]1[C@H]2CCC(CCCCC(=O)O)=C[C@H]2C[C@H]1O [(e), 3-(4-carboxybutyl)-7-exo-(3α-hydroxy-trans-1-octenyl)-8-enodo-hydroxy-cis-bicyclo[4,3,0]nona-2-ene] | – | 18.3 | 290 | 1/100 | 280 | 1/82 | 3.8 | 1/380 | 2.5 | 1/57 | 0.46 | 1/19 | 17.9 | 1/213 | 28.5 | Certain inhibition | –
3 | CCCCC[C@H](O)/C=C/[C@@H]1[C@H]2CC(CCCCC(=O)O)=C[C@H]2C[C@H]1O [isocarbacyclin, 9(O)-methano-Δ^6(9α) -PGI1] | – | – | – | – | – | – | – | – | – | – | – | – | – | – | – | – | Chemical stability (in words) [3]: adequately chemically stable
4 | O=C(O)CCC/C=C1\C[C@H]2C[C@@H](O)[C@H](/C=C/[C@@H](O)C3CCCC3)[C@H]2C1 [OP-41483] | – | – | – | – | – | – | – | – | – | – | – | – | – | – | – | – | Chemical stability (in words) [3]: chemically stable
5 | CCCCC[C@H](O)/C=C/[C@@H]1[C@H]2CCC(CCCC(=O)O)=C[C@H]2C[C@H]1O [(a), 3-(3-carboxypropyl)-7-exo-(3α-hydroxy-trans-1-octenyl)-8-endo-hydroxy-cis-bicyclo[4,3,0]nona-2-ene] | – | 15.3 | 1300 | 1/455 | 970 | 1/285 | – | About 1/500 | 0.44 | 1/10 | 0.19 | 1/8 | 20 | 1/192 | 20.0 | Certain inhibition | Blood flow increase in coronary artery (coronary artery): 37.6%
6 | CCC#CCC(C)[C@H](O)/C=C/[C@@H]1[C@H]2CCC(COCCC(=O)O)=C[C@H]2C[C@H]1O (stereo partly drawn) [(h)] | – | 21.3 | > 3000 | – | – | – | – | – | – | – | – | – | 15 | – | 32.5 | Certain inhibition | Blood flow increase in coronary artery (coronary artery): 25%; Blood flow increase in vertebral artery (vertebral artery; [5]): 28.5%; Blood flow increase in femoral artery (femoral artery; [5]): 31.7%
7 | CCC#CCC(C)[C@H](O)/C=C/[C@@H]1[C@H]2CCC(CCOCC(=O)O)=C[C@H]2C[C@H]1O (stereo partly drawn) [(g), 3(3-oxa-4-carboxybutyl)-7-exo-(3α-hydroxy-4,8-dimethyl-1-trans-octen-6-ynyl)-8-endo-hydroxy-cis-bicyclo[4,3,0]nona-2-ene] | 5.38 | 42.1 | 38 | 1/13 | – | – | 0.55 | 1/55 | 2 | 1/45 | 0.72 | 1/30 | – | 1/67 | – | – | ED (50 mmHg) (diastolic blood pressure; Table 2, read-out: Hypotensive activity ED50 mmHg): 16.1 µg/kg; ED (50 mmHg) (diastolic blood pressure; dog, femoral vein, Table 1, read-out: Hypotensive activity ED50 (dose reducing diastolic blood pressure by 50 mmHg)): 16 µg/kg; Indomethacine ulcer inhibiting activity, Inhibiting rate (Indomethacine ulcer; [4]): 57.3%
8 | CCC#CCC(C)[C@H](O)/C=C/[C@@H]1[C@H]2CC=C(CCCCC(=O)O)C[C@H]2C[C@H]1O (stereo partly drawn) [(i)] | 5.89 | 17.4 | 22 | – | 24 | 1/7 | 3.6 | 1/360 | 0.8 | 1/18 | 0.56 | 1/23 | 24.5 | 1/152 | – | – | Hypotensive activity, blood pressure decrease (diastolic blood pressure; at 60 μg/kg i.v. (so in the source), Table 2): 24.5 mmHg; Indomethacine ulcer inhibiting activity, Inhibiting rate (Indomethacine ulcer; oral administration of 10 μg/kg twice (so in the source)): 49.5%
